system: OVCAR3 cells; test: Cell proliferation study (Cell Titer Glo, 72 h); type: cell-based; conditions: Homo sapiens, OVCAR-3, luminescence, read-out: IC50, inhibitory effect on cellular proliferation
Description: OVCAR3 (Cobioer, CBP60294) cell line in logarithmic growth phase was used for these experiments. The cell density was adjusted to 1.1×10^4/mL and the cells were inoculated into a 96-well cell culture plate (Corning, 3599), 95 μL per well (the number of cells per well was 1×10^3). The culture plate was placed in an incubator, with 5% carbon dioxide, at 37° C. and incubated overnight. On the next day, a 10 mM stock solution of test compound was prepared in DMSO (Sigma, RNBF5902). After gradient dilution, a series of working solutions with different concentrations of test compound was prepared using complete medium. Working solution was added into the corresponding wells of the orifice plate, and the plate was placed in a 5% carbon dioxide incubator and cultivated at 37° C. for 72 h, and then removed from the incubator. To each well was added 50 μL Cell Tier Glo (Promega, G7573), and the plate was incubated at room temperature for 10 min, followed by luminescence detection with an enzyme marker. The inhibition curve was obtained with GraphPad 7.0 software using four-parameter equation.

| SMILES | IC50 |
| --- | --- |
| C[C@@]1(O)CCC[C@H]1n1c(=O)ccc2cnc(Nc3ccc(S(=O)(=O)N4CCC5(CCN(C6CN(c7cc8c(cc7F)C(=O)N(C7CCC(=O)NC7=O)C8=O)C6)CC5)CC4)cc3)nc21 (stereo partly drawn) [Compound 58] | 1000 to 5000 nM |
| C[C@@]1(O)CCC[C@H]1n1c(=O)ccc2cnc(Nc3ccc(S(=O)(=O)C4CCN(C5CN(C6CCN(c7cc8c(cc7F)C(=O)N(C7CCC(=O)NC7=O)C8=O)CC6)C5)CC4)cc3)nc21 (stereo partly drawn) [Compound 59] | 1000 to 5000 nM |
| C[C@@]1(O)CCC[C@H]1n1c(=O)ccc2cnc(NC3CCN(S(=O)(=O)N4CCN(CC5CCN(c6cc7c(cc6F)C(=O)N(C6CCC(=O)NC6=O)C7=O)CC5)CC4)CC3)nc21 (stereo partly drawn) [Compound 60] | 1000 to 5000 nM |
| C[C@@]1(O)CCC[C@H]1n1c(=O)ccc2cnc(NC3CCN(S(=O)(=O)N4CCN(CC5CCN(c6cc7c(cc6F)C(=O)N(C6CCC(=O)NC6=O)C7=O)C5)CC4)CC3)nc21 (stereo partly drawn) [Compound 61] | 101 to 1000 nM |
| C[C@@]1(O)CCC[C@H]1n1c(=O)ccc2cnc(NC3CCN(S(=O)(=O)C4CCN(C(=O)CC5CCN(c6cc7c(cc6F)C(=O)N(C6CCC(=O)NC6=O)C7=O)CC5)CC4)CC3)nc21 (stereo partly drawn) [Compound 62] | 1000 to 5000 nM |
| Cc1nc2c(F)cc(-c3nc(Nc4ccc(S(=O)(=O)C5CCN(CC6CCN(C7CN(c8cc9c(cc8F)C(=O)N(C8CCC(=O)NC8=O)C9=O)C7)CC6)CC5)cc4)ncc3F)cc2n1C(C)C (stereo not drawn) [Compound 65] | 101 to 1000 nM |
| Cc1nc2c(F)cc(-c3nc(Nc4ccc(S(=O)(=O)C5CCN(C6CN(C7CCN(c8cc9c(cc8F)C(=O)N(C8CCC(=O)NC8=O)C9=O)CC7)C6)CC5)cc4)ncc3F)cc2n1C(C)C (stereo not drawn) [Compound 66] | < 100 nM |
| C[C@@]1(O)CCC[C@H]1n1c(=O)ccc2cnc(NC3CCN(S(=O)(=O)C4CCN(C(=O)C5CCN(c6cc7c(cc6F)C(=O)N(C6CCC(=O)NC6=O)C7=O)CC5)CC4)CC3)nc21 (stereo partly drawn) [Compound 67] | 101 to 1000 nM |
| Cc1nc2c(F)cc(-c3nc(Nc4ccc(S(=O)(=O)N5CCN(CC6CCN(c7ccc8c(c7)C(=O)N(C7CCC(=O)NC7=O)C8=O)CC6)CC5)cc4)ncc3F)cc2n1C(C)C (stereo not drawn) [Compound 68] | 101 to 1000 nM |
| Cc1nc2c(F)cc(-c3nc(Nc4ccc(S(=O)(=O)NCCOCCOCCNc5cc6c(cc5F)C(=O)N(C5CCC(=O)NC5=O)C6=O)cc4)ncc3F)cc2n1C(C)C (stereo not drawn) [Compound 69] | 1000 to 5000 nM |
| Cc1nc2c(F)cc(-c3nc(Nc4ccc(S(=O)(=O)NCCOCCNc5cc6c(cc5F)C(=O)N(C5CCC(=O)NC5=O)C6=O)cc4)ncc3F)cc2n1C(C)C (stereo not drawn) [Compound 70] | 101 to 1000 nM |
| Cc1nc2c(F)cc(-c3nc(NC4CCN(S(=O)(=O)C5CCN(CC6CCN(c7cc8c(cc7F)C(=O)N(C7CCC(=O)NC7=O)C8=O)CC6)CC5)CC4)ncc3F)cc2n1C(C)C (stereo not drawn) [Compound 71] | < 100 nM |
| CC(C)N1CCOc2c(F)cc(-c3nc(Nc4ccc(S(=O)(=O)N5CCN(C6CC7(CCN(c8cccc9c8C(=O)N(C8CCC(=O)NC8=O)C9=O)CC7)C6)CC5)cc4)ncc3F)cc21 (stereo not drawn) [Compound 72] | > 10000 nM |
| CC(C)N1CCOc2c(F)cc(-c3nc(Nc4ccc(S(=O)(=O)N5CCC(NC(=O)C6CCN(c7cccc8c7C(=O)N(C7CCC(=O)NC7=O)C8=O)CC6)CC5)cc4)ncc3F)cc21 (stereo not drawn) [Compound 73] | > 10000 nM |
| Cc1nc2c(F)cc(-c3nc(NC4CCN(S(=O)(=O)C5CCN(C(=O)C6CCN(c7cc8c(cc7F)C(=O)N(C7CCC(=O)NC7=O)C8=O)CC6)CC5)CC4)ncc3F)cc2n1C(C)C (stereo not drawn) [Compound 74] | 1000 to 5000 nM |
| Cc1nc2c(F)cc(-c3nc(NC4CCN(S(=O)(=O)C5CCN(C6CC7(CCN(c8cc9c(cc8F)C(=O)N(C8CCC(=O)NC8=O)C9=O)CC7)C6)CC5)CC4)ncc3F)cc2n1C(C)C (stereo not drawn) [Compound 75] | 1000 to 5000 nM |
| C[C@@]1(O)CCC[C@H]1n1c(=O)ccc2cnc(Nc3ccc(S(=O)(=O)C4CCN(C5CC6(C5)CN(c5cc7c(cc5F)C(=O)N(C5CCC(=O)NC5=O)C7=O)C6)CC4)cc3)nc21 (stereo partly drawn) [Compound 76] | > 10000 nM |
| C[C@@]1(O)CCC[C@H]1n1c(=O)ccc2cnc(NC3CCN(S(=O)(=O)C4CCN(C(=O)C5CC6(CCN(c7cc8c(cc7F)C(=O)N(C7CCC(=O)NC7=O)C8=O)CC6)C5)CC4)CC3)nc21 (stereo partly drawn) [Compound 77] | 1000 to 5000 nM |
| C[C@@]1(O)CCC[C@H]1n1c(=O)ccc2cnc(NC3CCN(S(=O)(=O)C4CCN(C(=O)C5CCC6(CC5)CCN(c5cc7c(cc5F)C(=O)N(C5CCC(=O)NC5=O)C7=O)CC6)CC4)CC3)nc21 (stereo partly drawn) [Compound 78] | 101 to 1000 nM |
| C[C@@]1(O)CCC[C@H]1n1c(=O)ccc2cnc(NC3CCN(S(=O)(=O)C4CCN(C5CCC6(CCN(c7cc8c(cc7F)C(=O)N(C7CCC(=O)NC7=O)C8=O)CC6)C5)CC4)CC3)nc21 (stereo partly drawn) [Compound 81] | 101 to 1000 nM |
| C[C@@]1(O)CCC[C@H]1n1c(=O)ccc2cnc(NC3CCN(S(=O)(=O)C4CCN(CC5CC6(CCN(c7cc8c(cc7F)C(=O)N(C7CCC(=O)NC7=O)C8=O)CC6)C5)CC4)CC3)nc21 (stereo partly drawn) [Compound 82] | 101 to 1000 nM |

| SMILES | IC50 |
| --- | --- |
| C[C@@]1(O)CCC[C@H]1n1c(=O)ccc2cnc(NC3CCN(S(=O)(=O)C4CCN(C5CCC6(CCN(c7cc8c(cc7F)C(=O)N(C7CCC(=O)NC7=O)C8=O)C6)C5)CC4)CC3)nc21 (stereo partly drawn) [Compound 84] | 101 to 1000 nM |
| C[C@@]1(O)CCC[C@H]1n1c(=O)ccc2cnc(NC3CCN(S(=O)(=O)C4CCN(C5CC6(C5)CN(C(=O)C5CCN(c7cc8c(cc7F)C(=O)N(C7CCC(=O)NC7=O)C8=O)CC5)C6)CC4)CC3)nc21 (stereo partly drawn) [Compound 85] | 1000 to 5000 nM |
| C[C@@]1(O)CCC[C@H]1n1c(=O)ccc2cnc(NC3CCN(S(=O)(=O)C4CCN(C5CC6(CC(NC(=O)C7CCN(c8cc9c(cc8F)C(=O)N(C8CCC(=O)NC8=O)C9=O)CC7)C6)C5)CC4)CC3)nc21 (stereo partly drawn) [Compound 86] | 101 to 1000 nM |
| C[C@@]1(O)CCC[C@H]1n1c(=O)ccc2cnc(NC3CCN(S(=O)(=O)C4CCN(C5CCC6(CC5)CCN(c5cc7c(cc5F)C(=O)N(C5CCC(=O)NC5=O)C7=O)CC6)CC4)CC3)nc21 (stereo partly drawn) [Compound 89] | 101 to 1000 nM |
| C[C@@]1(O)CCC[C@H]1n1c(=O)ccc2cnc(NC3CCN(S(=O)(=O)C4CCN(CC5CCC6(CC5)CCN(c5cc7c(cc5F)C(=O)N(C5CCC(=O)NC5=O)C7=O)CC6)CC4)CC3)nc21 (stereo partly drawn) [Compound 90] | 101 to 1000 nM |
| C[C@@]1(O)CCC[C@H]1n1c(=O)ccc2cnc(NC3CCN(S(=O)(=O)NCCOCc4cn(CCOCCOCCNc5cccc6c5C(=O)N(C5CCC(=O)NC5=O)C6=O)nn4)CC3)nc21 (stereo partly drawn) [Compound 91] | 1000 to 5000 nM |
| C[C@@]1(O)CCC[C@H]1n1c(=O)ccc2cnc(NC3CCN(S(=O)(=O)CCCCCCCCCOc4cccc5c4C(=O)N(C4CCC(=O)NC4=O)C5=O)CC3)nc21 (stereo partly drawn) [Compound 92] | > 10000 nM |
| C[C@@]1(O)CCC[C@H]1n1c(=O)ccc2cnc(NC3CCN(S(=O)(=O)C4CCN(CC5CCN(c6cc7c(cc6F)C(=O)N(C6CCC(=O)NC6=O)C7=O)CC5)CC4)CC3)nc21 (stereo partly drawn) [Compound 93] | 1000 to 5000 nM |
| C[C@@]1(O)CCC[C@H]1n1c(=O)ccc2cnc(NC3CCN(S(=O)(=O)C4CCN(C5CC(C6CCN(c7cc8c(cc7F)C(=O)N(C7CCC(=O)NC7=O)C8=O)CC6)C5)CC4)CC3)nc21 (stereo partly drawn) [Compound 96] | > 10000 nM |
| Cc1nc2c(F)cc(-c3nc(NC4CCN(S(=O)(=O)C5CCN(CC6CCC7(CC6)CN(c6cc8c(cc6F)C(=O)N(C6CCC(=O)NC6=O)C8=O)C7)CC5)CC4)ncc3F)cc2n1C(C)C (stereo not drawn) [Compound 97] | 101 to 1000 nM |
| Cc1nc2c(F)cc(-c3nc(NC4CCN(S(=O)(=O)C5CCN(CC6CC7(CCN(c8cc9c(cc8F)C(=O)N(C8CCC(=O)NC8=O)C9=O)CC7)C6)CC5)CC4)ncc3F)cc2n1C(C)C (stereo not drawn) [Compound 98] | 101 to 1000 nM |
| Cc1nc2c(F)cc(-c3nc(NC4CCN(S(=O)(=O)C5CCN(CC6CC7CCC(C6)N7c6cc7c(cc6F)C(=O)N(C6CCC(=O)NC6=O)C7=O)CC5)CC4)ncc3F)cc2n1C(C)C (stereo not drawn) [Compound 99] | 101 to 1000 nM |
| Cc1nc2c(F)cc(-c3nc(NC4CCN(S(=O)(=O)C5CN(CC6CCN(c7cc8c(cc7F)C(=O)N(C7CCC(=O)NC7=O)C8=O)CC6)C5)CC4)ncc3F)cc2n1C(C)C (stereo not drawn) [Compound 100] | 101 to 1000 nM |
| Cc1nc2c(F)cc(-c3nc(NC4CCN(S(=O)(=O)C5CCN(CC6CC7CCC(C6)N7C6CN(c7cc8c(cc7F)C(=O)N(C7CCC(=O)NC7=O)C8=O)C6)CC5)CC4)ncc3F)cc2n1C(C)C (stereo not drawn) [Compound 101] | < 100 nM |
| Cc1nc2c(F)cc(-c3nc(NC4CCN(S(=O)(=O)C5CCN(CC6CC(N7CCC(c8cccc(C9CCC(=O)NC9=O)c8)CC7)C6)CC5)CC4)ncc3F)cc2n1C(C)C (stereo not drawn) [Compound 102] | 101 to 1000 nM |
| Cc1nc2c(F)cc(-c3nc(NC4CCN(S(=O)(=O)C5CCN(CC6CC(N7CCC(c8ccc9c(C%10CCC(=O)NC%10=O)nn(C)c9c8)CC7)C6)CC5)CC4)ncc3F)cc2n1C(C)C (stereo not drawn) [Compound 103] | < 100 nM |
| Cc1nc2c(F)cc(-c3nc(NC4CCN(S(=O)(=O)C5CCN(CCC6CCN(c7cc8c(cc7F)C(=O)N(C7CCC(=O)NC7=O)C8=O)CC6)CC5)CC4)ncc3F)cc2n1C(C)C (stereo not drawn) [Compound 104] | 101 to 1000 nM |
| Cc1nc2c(F)cc(-c3nc(Nc4ccc(S(=O)(=O)N5CCC6(CCN(C(=O)CNc7cc8c(cc7F)C(=O)N(C7CCC(=O)NC7=O)C8=O)CC6)CC5)cc4)ncc3F)cc2n1C(C)C (stereo not drawn) [Compound 105] | 101 to 1000 nM |
| Cc1nc2c(F)cc(-c3nc(Nc4ccc(S(=O)(=O)N5CCC6(CCN(CC7CCN(c8cc9c(cc8F)C(=O)N(C8CCC(=O)NC8=O)C9=O)CC7)CC6)CC5)cc4)ncc3F)cc2n1C(C)C (stereo not drawn) [Compound 106] | 1000 to 5000 nM |
| C[C@@]1(O)CCC[C@H]1n1c(=O)ccc2cnc(NC3CCN(S(=O)(=O)C4CCN(C5CC6(CCN(c7cccc8c7C(=O)N(C7CCC(=O)NC7=O)C8=O)CC6)C5)CC4)CC3)nc21 (stereo partly drawn) [Compound 107] | 101 to 1000 nM |
| Cc1nc2c(F)cc(-c3nc(NC4CCN(S(=O)(=O)C5CCN(CC6CCN(c7cc8c(cc7F)C(=O)N(C7CCC(=O)NC7=O)C8=O)C6)CC5)CC4)ncc3F)cc2n1C(C)C (stereo not drawn) [Compound 108] | < 100 nM |

— patent publication US20240050577A1, “CDK INHIBITORS AND PHARMACEUTICAL USES THEREOF” (RISEN (SUZHOU) PHARMA TECH CO., LTD., priority 2022, published 2024)
